Test results: patent publication EP1604643A1, “Cosmetic use of derivatives of 3-Phenylpropionic acid” (Cognis France, S.A.S., priority 2004, dated 2005)
Where two headings read alike, the source gives them in different places.

How the values were obtained:
Human fibroblasts = experiment: Cytophotoprotection of human fibroblasts against UVA radiation (cell proteins, MDA released); assay type: cell-based; conditions: for activity at 0.01 % strength / activity at 0.03 % strength: Homo sapiens, Fibroblast, light or radiation study, % against control, UVA 20 J/cm2; for activity at 0.01 % strength: dose 0.01 % w/v; for activity at 0.03 % strength: dose 0.03 % w/v
Procedure: The cytoprotection against UVA irradiation has been evaluated by a test on human fibroblasts because UVA radiation penetrates through the epidermis until the dermis where it induces oxidative stress, mainly by activation of photosensitising biological components, which catalyse the formation of ROS like anion superoxide, hydrogen peroxide and singlet oxygen, and lipoperoxydation of the cell membrane. These oxidative stress effects are evaluated in vitro due to measuring of the level of released malondialdehyde (MDA) (Morlière P., Moisan A., Santus R., Huppe G., Mazière J.C., Dubertret L. UV-A induced lipid peroxydation in cultured human fibroblasts. Biochim. Biophys. Acta (1991) Vol 1084, pp 261-269). The lipoperoxides formed after UVA irradiation undergo a decay into malondialdehyde which can form cross-links between many biological molecules like proteins with inhibition of enzymes and nucleic bases with risk of mutagenesis.
Human fibroblasts were inoculated with growth medium (DMEM+FCS) and incubated 3 days at 37°C, with 5% CO2. The growth medium was then exchanged by a medium containing the ingredient to be tested and was incubated 2 days at 37°C under an atmosphrere with 5 % of carbon dioxide. After the exchange of the medium bya balanced salt solution, the cell culture was irradiated with UVA radiation (20J/cm^2). Cell proteins were measured, and MDA released in the supernatant was determined spectrophotometrically.

[1] = Anti-inflammatory activity on human leucocytes cultured in vitro (Zymosan-induced respiratory burst, luminol luminescence); assay type: cell-based; conditions: human, leukocytes, % against control, average of 2-3 assays, each carried out 3 times, read-out: Cell number
Procedure: (§1) Human leukocytes (Polymorphonuclear neutrophilic granulocytes) were incubated with dihydrosinapinic acid during 1 day at 37°C under an atmosphere with 5 % carbon dioxide. The respiratory burst was induced by addition of a yeast extract ("Zymosan"). After incubation for 0.5 hours at 37 °C under an atmosphere with 5 % carbon dioxide the cell number was measured using an automatic cell counter and the rate of released reactive oxygen species was recorded by a luminescent reaction with luminol. (Pieper G.M., Gross G.J. EMD 52692 (bimakalim) a new potassium channel opener, attenuates luminol-enhanced chemiluminescence and superoxide anion radical formation by Zymosan-activated polymorphonuclear leukocytes (Immunopharmacology (1992) vol 23, pp 191-197). Table 3

[2] = test system: Human leukocytes (Polymorphonuclear neutrophilic granulocytes); experiment: as above; assay type: cell-based
Procedure: as §1

[3] = Anti free radicals: DPPH° (diphenylpicryl-hydrazyl) test; conditions: optical density at 513 nm; average of two assays
Procedure: (§2) The anti-free radical (anti-FR) activity has been evaluated by chemical tests for the evaluation of the potential to scavenge free radicals R° (DPPH° test) and hydroxyl radicals HO°. Furthermore the anti-FR activity has been evaluated by biochemical tests to address the potential for scavenging of a kind of reactive oxygen species (ROS), so called superoxide anions (02°).
The DPPH° scavenging effect of dihydrosinapinic acid has been measured by recording the optical density at 513 nm (DEBY C. Relation entre les acides gras essentiels et le taux des antioxydants tissulaires chez la souris. SOCIETE BELGE DE BIOLOGIE, séance du 19 décembre 1970, pp: 2675-2680). The IC50 (Inhibitory Concentration 50 %: dose for which 50 % of DPPH° is scavenged, average of two assays) of dihydrosinapinic acid is 0.0006 % (w/v).

[4] = Anti hydroxyl radicals: HO° test with deoxyribose (Fenton's reaction); conditions: no EDTA; optical density at 532 nm; average of 2 assays
Procedure: as §2
The hydroxyle radical HO* (formed by H2O2 in presence of Fe++) oxidises deoxyribose, then a pink compound is formed by condensation of thiobarbituric acid with the oxidised form of deoxyribose. The level of oxidised deoxyribose is determined by measurement of the optical density at 532 nm.

Lipoxygenase = experiment: Inhibition test on lipoxygenase (released superoxide anions, luminol luminescent probes); assay type: biochemical; conditions: rate of released superoxide anions; mean of 2 assays
Procedure: The anti-free radical (anti-FR) activity has been evaluated by chemical tests for the evaluation of the potential to scavenge free radicals R° (DPPH° test) and hydroxyl radicals HO°. Furthermore the anti-FR activity has been evaluated by biochemical tests to address the potential for scavenging of a kind of reactive oxygen species (ROS), so called superoxide anions (02°). […] Lipoxygenase was incubated with a specific substrate (unsaturated fatty acid) and the ingredient to be tested. Then the rate of released superoxide anions was evaluated by Luminol luminescent probes. The IC50 (mean of 2 assays) of dihydrosinapinic acid was 0.0002 % (w/v).

[5] = average of 2 assays, each carried out three times, read-out: Cell proteins
[6] = irradiated control = 100, read-out: MDA released

`COc1cc(CCC(=O)O)cc(OC)c1O` [Dihydrosinapinic acid, 3-(4-hydroxy-3,5-dimethoxyphenyl) propionic acid] showed an activity at 0.01 % strength (Human fibroblasts; [5]) of 121%, an activity at 0.01 % strength (Human fibroblasts; [6]) of 47% and an activity at 0.03 % strength (Human fibroblasts; [5]) of 140%. The activity at 0.03 % strength (Human fibroblasts; [6]) was 12%, the “protection of the cells against UVA-induced MDA released” value (Human fibroblasts; result in words, after incubation of the fibroblasts) was “strong protection” and the viability ([1]; dose 0.0001 % w/v) was 99%. It also gave a viability ([1]; dose 0.0003 % w/v) of 98%, an activity at 0.0001 % strength ([2]; Homo sapiens, Leukocyte, % against control, dose 0.0001 % w/v, Zymosan-activated, read-out: Released ROS) of 25% and an activity at 0.0003 % strength ([2]; Homo sapiens, Leukocyte, % against control, dose 0.0003 % w/v, Zymosan-activated, read-out: Released ROS) of 13%. For the same molecule, the “respiratory burst (release of reactive oxygen species)” value ([2]; result in words, Zymosan-activated polymorphonuclear neutrophilic granulocytes) was “inhibited”, the “IC50 (dose for which 50 % of DPPH° is scavenged)” value [3] was 0.0006 % (w/v) and the “IC50 (HO° test with deoxyribose)” value [4] was 0.025 % (w/v). The “IC50 (lipoxygenase inhibition)” value (Lipoxygenase) was 0.0002 % (w/v).
